Experiments:
parental CHO-K1 cells = assay: Ca^2+, pERK1/2 and cAMP assays on the parental CHO-K1 cell line (specificity control); type: cell-based, Chinese Hamster; settings: highest concentration of ligand
Protocol: These cells were cultured in Ham’s F12, 10% FBS and 1% penicillin streptomycin. Cells were passaged when 70–80% confluent using 0.05% trypsin: EDTA in phosphate-buffered saline (PBS), pH 7.4. All cells in culture, once seeded, were incubated at 37 °C with 5% CO2.
(§1) Fluo-4 Direct assay was preformed according to manufacturer’s instructions with additional wash steps and read on a Fluorescent Imaging Plate Reader (FLIPR) (Molecular Devices, California). Briefly, 10,000 cells were seeded/well in 10 μL of media in a 384 well block with a clear bottom plate and incubated overnight at 37 °C. An equivalent volume of 2x Flou-4 Direct calcium reagent was added to each well and incubated for 30 min at 37 °C and a further 30 min at room temperature. Ligand addition was carried out on the FLIPR instrument whilst fluorescence was measured at excitation 494 nm and emission at 516 nm for five minutes to enable capture of the fast calcium response.
(§2) To measure pERK1/2 we utilised the high throughput AlphaScreen SureFire pERK1/2 (Thr202/Tyr204) Assay Kit (PerkinElmer)[42]. Detection of pERK1/2 is enabled by immuno-sandwich capture of endogenous pERK1/2 in cell lysates. Antibody-coated AlphaScreen beads generate a highly amplified signal when near due to binding of pERK1/2. Cells were seeded at 50,000 cells/well in a 96 well tissue culture plate and incubated for 24 hours at 37 °C. Cells were then incubated in serum free media overnight. Test compounds were added to the cells and incubated for 10 min at room temperature before cells were lysed and assayed for pERK1/2 using the AlphaScreen-based detection kit according to the manufacturer’s protocol (PerkinElmer).
The LANCE Ultra cAMP homogeneous time resolved resonance energy transfer (TR-FRET) immunoassay (PerkinElmer) provides a highly sensitive and robust method for the detection of cAMP. […] Time- resolved FRET signals were measured after excitation at 320 nm on the EnVision. […]

hFFA2 [1] = target: T1, hFFA2 (Homo sapiens, UniProt O15552); assay: LANCE Ultra cAMP assay, inhibition of forskolin-induced cAMP, in CHO cells stably expressing hFFA2; type: cell-based; settings: for Emax: CHO; for EC50: read-out: cAMP pEC50 (converted)
T1 construct: host or cells: CHO-K1
T1 sequence (O15552 1-330): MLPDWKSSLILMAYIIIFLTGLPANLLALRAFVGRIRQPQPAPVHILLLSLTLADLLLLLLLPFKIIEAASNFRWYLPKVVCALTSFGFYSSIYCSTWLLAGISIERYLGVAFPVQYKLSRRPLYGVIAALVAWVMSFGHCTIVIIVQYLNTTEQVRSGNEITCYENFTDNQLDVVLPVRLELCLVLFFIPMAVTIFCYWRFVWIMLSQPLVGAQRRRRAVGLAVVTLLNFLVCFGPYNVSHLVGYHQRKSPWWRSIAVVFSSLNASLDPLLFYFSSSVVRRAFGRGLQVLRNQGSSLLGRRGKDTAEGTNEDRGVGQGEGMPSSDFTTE
Protocol: (§3) CHO-K1, stably expressing human FFA2 (CHO-FFA2) was purchased from DiscoverX Corporation. CHO-FFA2 cells were cultured in a buffer of Ham’s F12, 10% FBS, 1% penicillin streptomycin and 800 μg/mL of G418 (Geneticin) (Invitrogen Life Technologies). Cells were passaged when 70–80% confluent using 0.05% trypsin with 1 mM EDTA in phosphate-buffered saline (PBS), pH 7.4. All cells in culture, once seeded, were incubated at 37 °C with 5% CO2.
The LANCE Ultra cAMP homogeneous time resolved resonance energy transfer (TR-FRET) immunoassay (PerkinElmer) provides a highly sensitive and robust method for the detection of cAMP. Briefly, cells were re-suspended in stimulation buffer (1 x HBSS, 5 mM HEPES, 0.5 mM IBMX, 0.1% BSA (pH7.4)) and transferred to 384-proxiplate (PerkinElmer) at a density of 2000 cells/well. Cells were stimulated with agonist and forskolin (5 μM), where appropriate, and incubated for 30 min. EucAMP tracer and ULight-anti-cAMP solutions were added to the cells and incubated for 1 hour at room temperature. Time- resolved FRET signals were measured after excitation at 320 nm on the EnVision. All data were normalized to the functional response obtained with 1.67 mM sodium acetate.

[2] = system: intestinal ischemia reperfusion injury (IRI); assay: Mouse model of intestinal ischemia reperfusion injury (superior mesenteric artery occlusion); type: in vivo; settings: for Circulating neutrophil numbers: IRI groups, WT mice; for Circulating neutrophil numbers / Mucosal (villi) damage, histopathological score of H&E-stained ileum / Neutrophil infiltration into the ileum (esterase-stained neutrophils, myeloperoxidase): oral gavage; for Mucosal (villi) damage, histopathological score of H&E-stained ileum / Neutrophil infiltration into the ileum (esterase-stained neutrophils, myeloperoxidase): WT IRI groups; for Circulating neutrophil counts: sham-operated mice, oral gavage 48 h, 24 h and 1 h prior to surgery, mean ± SEM
Excerpt: Specific pathogen-free (SPF) conventional C57BL/6J (WT) mice were obtained from the […] (ARC) and maintained at The University of Queensland Biological Resources Animal Facilities under specific pathogen-free conditions.
FFA2^−/− knockout mice were obtained from Monash University and bred at The University of Queensland Biological Resources Animal Facilities under SPF conditions. Male mice 10–12 weeks weighing 20–30 g were used for all experiments. All experiments were performed in accordance with the guidelines and approval of The University of Queensland Animal Ethics Committee.
After 35 minutes the ligature was removed to allow for a reperfusion period of 150 minutes. […] Mice were orally gavaged with ligand 48 hours, 24 hours and 1 hour prior to surgery. Mice were euthanised and small intestinal tissue or whole blood [collected in 1 mg/mL EDTA and 0.1 mg/mL nafamostat mesylate (FUT-175)] was collected for further analysis.

FFA2 = system: FFA2; parameters: method as in earlier work; settings: cited from earlier work
hFFA2 [3] = target: T1, hFFA2; assay: AlphaScreen SureFire pERK1/2 (Thr202/Tyr204) assay in CHO cells stably expressing hFFA2; type: cell-based; settings: for pERK1/2 response (in words): ligand alone; for Emax: CHO
Protocol: as §3, §2

hFFA2 [4] = target: T1, hFFA2; assay: Fluo-4 Direct Ca^2+ flux assay in CHO cells stably expressing hFFA2; type: cell-based; settings: for Ca^2+ response (in words): ligand alone
Protocol: as §3, §1

[5] = antagonist mode, inhibition of ERK activation by 2 mM acetate, read-out: pERK1/2 pEC50 (Antagonist) (converted)
[6] = 2CTAP + Acetate (2CTAP dose response in the presence of 2 mM acetate, Fig. 6A), read-out: Ca^2+ pEC50 (converted)
[7] = antagonist mode, concentration-dependent decrease in Ca^2+, read-out: Ca^2+ pEC50 (Antagonist) (converted)
[8] = inhibition of forskolin-induced cAMP, ligand alone, expressed as a percentage of the maximal response from acetate
[9] = inhibition of forskolin-induced cAMP, ligand alone (agonist mode), CHO-hFFA2
[10] = + PTX, read-out: pERK1/2 pEC50 (converted)
[11] = + PTX, percentage of the maximal response from acetate
[12] = ligand alone (agonist mode), CHO-hFFA2, expressed as a percentage of the maximal response from acetate
[13] = ligand alone (agonist mode), CHO-hFFA2, read-out: pERK1/2 pEC50 (converted)
[14] = ligand alone (agonist mode), CHO-hFFA2
[15] = 4CMTB at 20 µM on an acetate dose response curve
[16] = 4CMTB below 1 µM on an acetate dose response curve

Structure (SMILES) | forskolin-induced cAMP response (in words) (hFFA2 [1]; ligand alone, CHO-hFFA2) | EC50 (hFFA2 [3]; [5]) [µM] | pERK1/2 response (in words) (hFFA2 [3]; CHO-hFFA2) | EC50 (hFFA2 [4]; [6]) [nM] | EC50 (hFFA2 [4]; [7]) [nM] | Ca^2+ response (in words) (hFFA2 [4]; CHO-hFFA2) | Emax (hFFA2 [1]; [8]) [%] | EC50 (hFFA2 [1]; [9]) [nM] | EC50 (hFFA2 [3]; [10]) [µM] | Emax (hFFA2 [3]; [11]) [%] | Emax (hFFA2 [3]; [12]) [%] | EC50 (hFFA2 [3]; [13]) [µM] | Response in parental CHO-K1 cells (parental CHO-K1 cells) | Circulating neutrophil numbers [2] | Neutrophil infiltration into the ileum (esterase-stained neutrophils, myeloperoxidase) [2] | other results
O=C(O)CC(C(=O)Nc1nc(-c2ccccc2Cl)cs1)c1ccccc1 (racemic) [R/S-2CTAP, 4-((4-(2-chlorophenyl)thiazole-2-yl)amino)-4oxo-3-phenylbutanoic acid] | no effect | 15.8 | no effect | 631 | 1000 | concentration-dependent decrease in Ca^2+ | – | – | – | – | – | – | No response | comparable to vehicle control IRI-groups | did not reduce neutrophil infiltration below the IRI group | Protective effects in IRI in the absence of FFA2 ([2]; FFA2^−/− mice, IRI): abolished; Mucosal (villi) damage, histopathological score of H&E-stained ileum [2]: mucosal damage was significantly reduced; Concentration of maximal response in the GTPγS assay (FFA2): 60 nM
CC(=O)O [Acetate] | – | – | – | – | – | – | – | – | – | – | – | – | No response | – | – | cAMP pEC50 (hFFA2 [1]; [9]): 3.9; cAMP Emax (hFFA2 [1]; [8]): 100; pERK1/2 pEC50 (hFFA2 [3]; [14]): 3.6; pERK1/2 Emax (hFFA2 [3]; [12]): 100; Ca^2+ pEC50 (hFFA2 [4]; [14]): 3.8; Ca^2+ Emax (hFFA2 [4]; [12]): 100
O=C(O)C[C@@H](C(=O)Nc1nc(-c2ccccc2Cl)cs1)c1ccccc1 [R-2CTAP, 4-((4-(2-chlorophenyl)thiazole-2-yl)amino)-4oxo-3-phenylbutanoic acid] | no effects | 2.51 | no effects | 251 | 251 | decreased Ca^2+ | – | – | – | – | – | – | – | – | – | –
O=C(O)C[C@H](C(=O)Nc1nc(-c2ccccc2Cl)cs1)c1ccccc1 [S-2CTAP, 4-((4-(2-chlorophenyl)thiazole-2-yl)amino)-4oxo-3-phenylbutanoic acid] | no effects | 39.8 | no effects | 1580 | 2000 | decreased Ca^2+ | – | – | – | – | – | – | – | – | – | –

The next lines start with results.

forskolin-induced cAMP response (in words) (hFFA2 [1]; ligand alone, CHO-hFFA2) | EC50 (hFFA2 [3]; [5]) [µM] | pERK1/2 response (in words) (hFFA2 [3]; CHO-hFFA2) | EC50 (hFFA2 [4]; [6]) [nM] | EC50 (hFFA2 [4]; [7]) [nM] | Ca^2+ response (in words) (hFFA2 [4]; CHO-hFFA2) | Emax (hFFA2 [1]; [8]) [%] | EC50 (hFFA2 [1]; [9]) [nM] | EC50 (hFFA2 [3]; [10]) [µM] | Emax (hFFA2 [3]; [11]) [%] | Emax (hFFA2 [3]; [12]) [%] | EC50 (hFFA2 [3]; [13]) [µM] | Structure (SMILES) | Response in parental CHO-K1 cells (parental CHO-K1 cells) | Circulating neutrophil numbers [2] | Neutrophil infiltration into the ileum (esterase-stained neutrophils, myeloperoxidase) [2] | other results
– | – | – | – | – | did not induce a Ca^2+ response | 83 | 100 | 20 | 20 | 85 | 1.58 | CC(C)C(C(=O)Nc1nccs1)c1ccc(Cl)cc1 (racemic) [R/S-4CMTB, 2-(4-chlorophenyl)-3-methyl-N-(thiazole-2-yl)butanamide] | No response | – | – | –
– | – | – | – | – | no effect | 74 | 6310 | 20 | 16 | 60 | 10 | CC(C)[C@@H](C(=O)Nc1nccs1)c1ccc(Cl)cc1 [R-4CMTB, 2-(4-chlorophenyl)-3-methyl-N-(thiazole-2-yl)butanamide] | – | comparable to vehicle control IRI-groups | did not reduce neutrophil infiltration below the IRI group | Circulating neutrophil counts [2]: 0.81 × 10^6 ± 0.11; Allosteric modulation of acetate Ca^2+ response (hFFA2 [4]; [15]): mild effect on the potency of acetate but did not increase the efficacy; Allosteric modulation of acetate Ca^2+ response (hFFA2 [4]; [16]): negative allosteric modulators
– | – | – | – | – | – | 99 | 158 | 15.8 | 22 | 102 | 0.794 | CC(C)[C@H](C(=O)Nc1nccs1)c1ccc(Cl)cc1 [S-4CMTB, 2-(4-chlorophenyl)-3-methyl-N-(thiazole-2-yl)butanamide] | – | comparable to vehicle control IRI-groups | increased neutrophil infiltration into the villi | Mucosal (villi) damage, histopathological score of H&E-stained ileum [2]: did not reduce villi damage; Circulating neutrophil counts [2]: 0.92 × 10^6 ± 0.07; Allosteric modulation of acetate Ca^2+ response (hFFA2 [4]; [15]): increased both the potency and efficacy of acetate; Allosteric modulation of acetate Ca^2+ response (hFFA2 [4]; [16]): negative allosteric modulators; Emax (hFFA2 [4]; [12]): 55%; EC50 (hFFA2 [4]; ligand alone (agonist mode), CHO-hFFA2, read-out: Ca^2+ pEC50 (converted)): 2000 nM

Reference: paper PMC6292860, “Characterisation of small molecule ligands 4CMTB and 2CTAP as modulators of human FFA2 receptor signalling” (Scientific Reports, 2018)
